Source: the supplement of paper PMC13380429

Tests used:
Conditions in all cases: 72 h
[1] = test system: Vero E6; assay: drug sensitivity score (DSS) for viability; higher = more toxic; extreme values may be limits of the assay
[2] = test system: Calu-3; assay: as above
[3] = test system: Caco-2; assay: as above
[4] = test system: Vero E6; assay: relative viability EC50 (midpoint between 100% and the lowest measured viability); higher = less toxic
[5] = test system: Calu-3; assay: as above
[6] = test system: Caco-2; assay: as above
[7] = test system: Vero E6; assay: cell viability relative to DMSO; higher = less toxic
[8] = test system: Calu-3; assay: as above
[9] = test system: Caco-2; assay: as above
[10] = test system: U2OS; assay: drug sensitivity score (DSS) for viability; higher = more toxic; extreme values may be limits of the assay
[11] = test system: HepG2; assay: as above
[12] = test system: U2OS; assay: relative viability EC50 (midpoint between 100% and the lowest measured viability); higher = less toxic
[13] = test system: U2OS; assay: cell viability relative to DMSO; higher = less toxic
[14] = test system: HepG2; assay: as above

SMILES: CC(=O)SC[C@@H](C)C(=O)N1CCC[C@H]1C(=O)N[C@@H](Cc1ccccc1)C(=O)O [alacepril]
- drug sensitivity score [1]: 0
- drug sensitivity score [2]: 0
- drug sensitivity score [3]: 0
- relative viability EC50 [4]: > 10 µM
- relative viability EC50 [5]: > 10 µM
- relative viability EC50 [6]: > 10 µM
- cell viability ([7]; 1 nM): 98.3%
- cell viability ([7]; 10 nM): 101%
- cell viability ([7]; 100 nM): 93%
- cell viability ([7]; 1000 nM): 98.8%
- cell viability ([7]; 10000 nM): 99.4%
- cell viability ([8]; 1 nM): 106%
- cell viability ([8]; 10 nM): 108%
- cell viability ([8]; 100 nM): 96.9%
- cell viability ([8]; 1000 nM): 103%
- cell viability ([8]; 10000 nM): 99.4%
- cell viability ([9]; 1 nM): 102%
- cell viability ([9]; 10 nM): 101%
- cell viability ([9]; 100 nM): 94.7%
- cell viability ([9]; 1000 nM): 108%
- cell viability ([9]; 10000 nM): 104%

SMILES: CCC1(c2ccc(N)cc2)CCC(=O)NC1=O (stereo unspecified) [aminoglutethimide]
- drug sensitivity score [10]: 0
- drug sensitivity score [1]: 0
- drug sensitivity score [2]: 0
- drug sensitivity score [3]: 0
- drug sensitivity score [11]: 4.8
- relative viability EC50 [12]: > 10 µM
- relative viability EC50 [4]: > 10 µM
- relative viability EC50 [5]: > 10 µM
- relative viability EC50 [6]: > 10 µM
- cell viability ([13]; 1 nM): 102%
- cell viability ([13]; 10 nM): 105%
- cell viability ([13]; 100 nM): 105%
- cell viability ([13]; 1000 nM): 101%
- cell viability ([13]; 10000 nM): 98.6%
- cell viability ([7]; 1 nM): 97.6%
- cell viability ([7]; 10 nM): 101%
- cell viability ([7]; 100 nM): 91.3%
- cell viability ([7]; 1000 nM): 86.9%
- cell viability ([7]; 10000 nM): 100%
- cell viability ([8]; 1 nM): 112%
- cell viability ([8]; 10 nM): 95.6%
- cell viability ([8]; 100 nM): 103%
- cell viability ([8]; 1000 nM): 93.2%
- cell viability ([8]; 10000 nM): 102%
- cell viability ([9]; 1 nM): 109%
- cell viability ([9]; 10 nM): 97.2%
- cell viability ([9]; 100 nM): 105%
- cell viability ([9]; 1000 nM): 112%
- cell viability ([9]; 10000 nM): 111%
- cell viability ([14]; 1 nM): 90.7%
- cell viability ([14]; 10 nM): 96%
- cell viability ([14]; 100 nM): 85.3%
- cell viability ([14]; 1000 nM): 77.2%
- cell viability ([14]; 10000 nM): 71.8%

SMILES: COc1ccc(-c2cc(=S)ss2)cc1 [anethole-trithione]
- drug sensitivity score [10]: 0
- drug sensitivity score [1]: 0
- drug sensitivity score [2]: 0
- drug sensitivity score [3]: 0
- relative viability EC50 [12]: > 10 µM
- relative viability EC50 [4]: > 10 µM
- relative viability EC50 [5]: > 10 µM
- relative viability EC50 [6]: > 10 µM
- cell viability ([13]; 1 nM): 100%
- cell viability ([13]; 10 nM): 98.9%
- cell viability ([13]; 100 nM): 99.8%
- cell viability ([13]; 1000 nM): 97.6%
- cell viability ([13]; 10000 nM): 103%
- cell viability ([7]; 1 nM): 107%
- cell viability ([7]; 10 nM): 105%
- cell viability ([7]; 100 nM): 95.9%
- cell viability ([7]; 1000 nM): 102%
- cell viability ([7]; 10000 nM): 106%
- cell viability ([8]; 1 nM): 97.1%
- cell viability ([8]; 10 nM): 95.9%
- cell viability ([8]; 100 nM): 111%
- cell viability ([8]; 1000 nM): 108%
- cell viability ([8]; 10000 nM): 97.3%
- cell viability ([9]; 1 nM): 99.3%
- cell viability ([9]; 10 nM): 96.5%
- cell viability ([9]; 100 nM): 100%
- cell viability ([9]; 1000 nM): 91.9%
- cell viability ([9]; 10000 nM): 92.2%

SMILES: CN/C(=N\CCSCc1nc[nH]c1C)NC#N [cimetidine]
- drug sensitivity score [10]: 0
- drug sensitivity score [1]: 0
- drug sensitivity score [2]: 0
- drug sensitivity score [3]: 0
- relative viability EC50 [12]: > 10 µM
- relative viability EC50 [4]: > 10 µM
- relative viability EC50 [5]: > 10 µM
- relative viability EC50 [6]: > 10 µM
- cell viability ([13]; 1 nM): 101%
- cell viability ([13]; 10 nM): 106%
- cell viability ([13]; 100 nM): 100%
- cell viability ([13]; 1000 nM): 104%
- cell viability ([13]; 10000 nM): 96.4%
- cell viability ([7]; 1 nM): 94.5%
- cell viability ([7]; 10 nM): 91.7%
- cell viability ([7]; 100 nM): 96.9%
- cell viability ([7]; 1000 nM): 91.3%
- cell viability ([7]; 10000 nM): 90%
- cell viability ([8]; 1 nM): 104%
- cell viability ([8]; 10 nM): 106%
- cell viability ([8]; 100 nM): 102%
- cell viability ([8]; 1000 nM): 101%
- cell viability ([8]; 10000 nM): 88.6%
- cell viability ([9]; 1 nM): 99.8%
- cell viability ([9]; 10 nM): 98.7%
- cell viability ([9]; 100 nM): 98.7%
- cell viability ([9]; 1000 nM): 106%
- cell viability ([9]; 10000 nM): 88.1%
